Measurements taken from US20110092439A1, “METHOD OF PROMOTING WOUND HEALING” (priority 2008, published 2011).
“Also recorded” adds a separate entry of the source.

How the values were obtained:
[1] = system: 20×6 mm incisional wounds on the back; assay: Porcine skin wound study; assay type: in vivo, juvenile pigs
Source text: Overview of the Animal Study. In selecting the appropriate animal for this study, a pig was selected because of the anatomical similarities between pig skin and human skin. In fact, pig wound healing has been used in numerous studies to simulate human skin (Sullivan et al., Wound Repair Regen. 9: 66-76, 2001).
Design of Study. In this study, juvenile pigs were oriented with twelve wound sites per animal—20×6 mm incisional wounds on the back—over the course of a six week study (see FIG. 2). Systemic relaxin was delivered via mini-pumps to achieve 20 ng/mL serum concentrations. Topical formulations were prepared by Dow Pharma, and consisted of propylene glycol and ethanol, which contributed to good long term stability of the therapeutic agent. Dosages consisting of placebo, 0.5 mg/mL (low dose), and 2.5 mg/mL (high dose) were prepared. The goals of the study were to assess the safety of topical relaxin on wound healing and to determine the efficacy of relaxin as a treatment for wound healing and/or scar formation. During the first week, irrigation was performed once daily. During weeks 2-3, topical formulation was applied twice daily, and during weeks […], topical formulation was applied once daily.
Design of Drug. The study drug was relaxin (produced by recombinant technology). Recombinant relaxin is identical to the native human hormone H2 relaxin, produced using a recombinant single chain process. The active test article may be aseptically diluted to the desired concentration with the acetate diluent (20 mM sodium acetate, pH 5.0).
Study Procedures. Referring to FIG. 3 which depicts the back of a pig with incisions according to the experimental design described herein at the completion of six weeks, the wound in Section 3 was irrigated with relaxin construct during the first week, and subsequently treated with high dose topical relaxin formulation during weeks 2-6 as described above. Sections 4, 5, and 6 received no irrigation during week 1. Section 4 was treated with placebo. Section 5 was treated with low dose topical formulation, and Section 6 was treated with high dose topical formulation.
Cosmetic appearance of skin. Visual rankings of wound pictures were conducted by neutral observers who evaluated scabs during early wound healing (days 5-7) and scars at the end of the study (see FIG. 4). […] The results of this visual wound assessment determined that 89% of the time a relaxin treatment group was selected in the top three. Only 11% of the time, a group not treated with relaxin was selected in the top three.
A cosmetic score was also determined by a professional dermatologist at weeks 2, 4, and 6. The cosmetic score has five components: (1) color—matching with surrounding skin; (2) texture—no hardness; (3) distortion—no distortion of nearby skin; (4) contour—flush with surrounding skin; (5) global—no hypertrophy or keloid formation. During this dermatological assessment, evaluation at time 2 weeks was obscured by scabs, so the data for cosmetic scores was collected from evaluation at weeks 4 and 6 (see FIG. 5). […] In the bottom profile, the scar is visible.
Histological evaluation. A professional histopathologist evaluated the pathology of the treatments for such indications as granulation, inflammation, and necrosis. In judging granulation tissue, it is considered that early response to wound includes invasion of the site by fibroblasts, inflammatory cells, and new blood vessels. Over time, this resolves to more normal tissue as the site heals. Chronic inflammation characterized by the presence of macrophages, giant cells, lymphocytes, and PMNs indicated adverse reaction. Minor factors such as keratosis (formation of keratin layer outside the epidermis) and acanthosis (thickening of the epidermal layer) are also considered. […]

[2] = Canine gingiva study: RLX migration and degradation after gingival injection (SELDI-TOF MS); assay type: in vivo, dog; conditions: for migration of RLX through the gingiva: after gingival injection; for concentration of H2 RLX detected in treated gingiva: site of injection
Protocol: The aim of this study was to determine the rate of RLX migration and extent of degradation after gingival injections. […] Employing a dog model, RLX was administered and tissue punch biopsies were collected at the site of injection and 0.5, 1 and 2 cm from the site of injection. Tissue was collected at several time points including 1, 2 and 4 hrs after injection. Protein was extracted from the gingival biopsies and analysed via ProteinChip technology (Surface Enhanced Laser Desorption/Ionization Time-of-Flight Mass Spectrometry, SELDI-TOF MS), which combines two well-established methods of solid phase chromatography and TOF-MS into an integrated platform. ProteinChip arrays were coated with anti-H2 RLX Ab, allowing the specific capture of RLX and associated breakdown/modified products.
Design of Drug. Gingival injections were administered (25 μg H2 RLX/100 μl, 41 μM) and tissue was collected at several positions including the site of injection and 0.5, 1 and 2 cm from the site of injection. Tissue was collected 1, 2 and 3 hrs after injection.
a) Protein Extraction and Quantitation. Frozen gingival biopsies were homogenized in extraction buffer (10 μl/mg tissue) containing 10 mM Tris-HCl, 10 mM NaCl, 0.1% TFA and protease inhibitor (complete mini, Roche). The extract was centrifuged (6000×g) for 10 min and the supernatant was collected, aliquoted and stored at −80° C. Total protein concentration was determined using the Bradford assay. Protein concentrations ranged from 1.4 mg/ml to 2.8 mg/ml, all samples were standardized to 1.4 mg/ml in extraction buffer.
b) SELDI-TOF MS analysis—Analysis of RLX treated gingiva on PG20 arrays. Anti-H2 RLX Ab (2 μl/0.25 mg/ml; Genentech) or control IgG (Ciphergen Biosystems) was applied to each spot of a PS20 array which had been pre-coated with Protein G (Ciphergen Biosystems). After antibody binding, the chip was washed once with PBS/0.5% Triton X-100 for 5 min with agitation (5 μl per spot), followed by two PBS washes. Dog gingiva extracts (3 μl/1.4 mg/ml) were applied to each spot and incubated for 4 hrs. Non-specifically bound proteins were removed by sequentially washing with PBS/0.5% Triton X-100, PBS and 1 mM HEPES, pH 7.2. The chips were air dried and 1 μl of 50% saturated sinapinic acid in 50% (v/v) acetonitrile, 0.5% trifluoroacetic acid was applied onto each spot twice, arrays were air dried between each application. Chips were subsequently analysed by SELDI-TOF MS (Ciphergen Biosystems) using the following settings, laser 220 and sensitivity 9.
c) Generation of H2 RLX Std Curve on PG20 arrays. H2 RLX (batch number 11835-89) was spiked into control dog gingiva (1.4 mg/ml) at different concentrations, including 100 nM, 50 nM, 12.5 nM, 6.25 nM, 3.125 nM and 1.56 nM and analysed as described above.

[3] = as above; assay type: in vivo, dog
wounded sites = conditions: systemic relaxin, rats; cited from earlier work
tooth movement = conditions: RLX via gingival injections, dog models; cited from earlier work
[4] = systemic relaxin vs no systemic relaxin
[5] = systemic relaxin, after six weeks, blinded histopathology

relaxin
blood vessels in the wound site ([1]; after about six weeks of treatment): overall reduction | relaxin treatment group selected in the top three in visual wound assessment ([1]; blinded neutral observers ranking best three of six groups of wound pictures): 89 % of the time | adverse effects / tolerability over dose range ([1]; dose range 10-960 μg/kg/day): no relevant adverse effects; also recorded: well-tolerated | wound healing / cosmetic ranking with irrigation relaxin treatment versus topical only ([1]; irrigation week 1 then high dose topical weeks 2-6): particularly efficacious; also recorded: ranked higher overall | wound healing with topical-only relaxin compared to placebo ([1]; low dose 0.5 mg/mL and high dose 2.5 mg/mL topical formulation, six weeks): improved wound healing | adverse effects associated with relaxin treatment ([1]; pig, in vivo): no adverse effects | necrosis or inflammation associated with relaxin treatment ([1]; pig, in vivo): no necrosis or inflammation | scarring on histopathological slide ([1]; relaxin treatment, six weeks, no relaxin: severe scarring): mild scarring | wound healing after systemic treatment compared to topical administration ([1]; some indications): better wound healing | collagen organization (objective collagen scoring, red pixel ratio) [1, 4]: significantly better | composite wound healing score (three point collagen scale) [1, 4]: significantly improved | wound appearance versus control pig ([1]; systemic relaxin, after day six): healed faster, better | chronic inflammation in wound sites [1, 5]: reduces; also recorded: significantly reduced | granulation tissue in wound sites [1, 5]: reduces; also recorded: significantly reduced | scar visibility at wound site ([1]; systemic relaxin, six weeks of treatment, vs placebo (red scar visible)): invisible; also recorded: no scar was visible | RLX detection 0.5 cm from the site of injection ([2]; 1 hr time point): detected | RLX detection 1 cm from the site of injection ([2]; 1 hr time point): not detected | RLX detection 2 cm from the site of injection ([2]; 1 hr time point): not detected | migration of RLX through the gingiva [2]: stayed close to the injection site | migration of RLX through the gingiva ([2]; listed as RLX): stayed close to the injection site; also recorded: limited migration | concentration of H2 RLX detected in treated gingiva ([2]; 1 hr after gingival injection of 25 μg H2 RLX/100 μl): 90 nM | concentration of H2 RLX detected in treated gingiva ([2]; 2 hrs after gingival injection of 25 μg H2 RLX/100 μl): 78 nM | RLX detection at the remaining time points ([3]; 2 and 4 hrs): only detected at the site of injection | concentration of H2 RLX detected in treated gingiva ([3]; site of injection, 4 hrs after gingival injection of 25 μg H2 RLX/100 μl): 21 nM | VEGF and bFGF transcripts (wounded sites): upregulation | new blood vessel formation selectively at wounded sites (wounded sites): increased | relapse (tooth movement): prevent relapse | tooth movement (tooth movement): speed tooth movement
